According to ChEMBL document CHEMBL1150266, “Design and synthesis of conformationally constrained glucagon-like peptide-1 derivatives with increased plasma stability and prolonged in vivo activity” (J Med Chem, 2008):

Tests used:
[1] = (§1) Stability in human plasma at 1000 ng/mL at 37 degC; format: ADME, cell-free
[2] = target: T1, Glucagon-like peptide 1 receptor (Homo sapiens, UniProt P43220); test: Displacement of [125I]GLP1 from human GLP1R expressed in CHOK1 cells; format: cell-based, CHO-K1
T1 sequence (P43220 whole entry): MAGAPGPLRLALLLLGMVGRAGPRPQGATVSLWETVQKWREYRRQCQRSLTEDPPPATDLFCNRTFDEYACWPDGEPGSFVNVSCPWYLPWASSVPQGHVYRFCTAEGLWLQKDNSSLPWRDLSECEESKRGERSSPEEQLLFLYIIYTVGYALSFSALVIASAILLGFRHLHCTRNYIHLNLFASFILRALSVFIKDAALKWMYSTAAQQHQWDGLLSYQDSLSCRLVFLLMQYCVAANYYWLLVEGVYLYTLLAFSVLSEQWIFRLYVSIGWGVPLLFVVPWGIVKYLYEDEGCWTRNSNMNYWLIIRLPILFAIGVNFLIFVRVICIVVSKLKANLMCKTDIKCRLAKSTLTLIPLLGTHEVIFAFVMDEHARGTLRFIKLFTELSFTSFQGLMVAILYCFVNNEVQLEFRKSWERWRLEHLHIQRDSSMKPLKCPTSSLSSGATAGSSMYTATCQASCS

[3] = target: T1, Glucagon-like peptide 1 receptor; test: Agonist activity at human GLP1R expressed in CHO cells assessed as increase in cAMP level by cAMP-response element/luciferase activation assay; format: functional, cell-based
[4] = test system: Plasma; test: as §1; format: ADME, cell-free
[5] = Stability in human plasma at 1000 ng/mL at 37 degC after 5 hrs; format: ADME, cell-free; settings: read-out: Stability

half-life at 1000 ng/mL [1] [h] | Structure (SMILES) | IC50 [2] [nM] | EC50 [3] [nM] | Stability [4] | remaining at 5 h, 1000 ng/mL [5] [%]
5 | CC[C@H](C)[C@H](NC(=O)[C@H](Cc1ccccc1)NC(=O)[C@H](CCC(=O)O)NC(=O)[C@H](CCCCN)NC(=O)[C@H](C)NC(=O)[C@H](C)NC(=O)[C@H](CCC(N)=O)NC(=O)CNC(=O)[C@H](CCC(=O)O)NC(=O)[C@H](CC(C)C)NC(=O)[C@H](Cc1ccc(O)cc1)NC(=O)[C@H](CO)NC(=O)[C@H](CO)NC(=O)[C@@H](NC(=O)[C@H](CC(=O)O)NC(=O)[C@H](CO)NC(=O)[C@@H](NC(=O)[C@H](Cc1ccccc1)NC(=O)[C@@H](NC(=O)CNC(=O)[C@H](CCC(=O)O)NC(=O)CNC(=O)[C@@H](N)Cc1cnc[nH]1)[C@@H](C)O)[C@@H](C)O)C(C)C)C(=O)N[C@@H](C)C(=O)N[C@@H](Cc1c[nH]c2ccccc12)C(=O)N[C@@H](CC(C)C)C(=O)N[C@H](C(=O)N[C@@H](CCCCN)C(=O)NCC(=O)N[C@@H](CCCNC(=N)N)C(=O)NCC(=O)O)C(C)C | – | – | – | –
0.5 | CC[C@H](C)[C@H](NC(=O)[C@H](Cc1ccccc1)NC(=O)[C@H](CCC(=O)O)NC(=O)[C@H](CCCCN)NC(=O)[C@H](C)NC(=O)[C@H](C)NC(=O)[C@H](CCC(N)=O)NC(=O)CNC(=O)[C@H](CCC(=O)O)NC(=O)[C@H](CC(C)C)NC(=O)[C@H](Cc1ccc(O)cc1)NC(=O)[C@H](CO)NC(=O)[C@H](CO)NC(=O)[C@@H](NC(=O)[C@H](CC(=O)O)NC(=O)[C@H](CO)NC(=O)[C@@H](NC(=O)[C@H](Cc1ccccc1)NC(=O)[C@@H](NC(=O)CNC(=O)[C@H](CCC(=O)O)NC(=O)[C@H](C)NC(=O)[C@@H](N)Cc1cnc[nH]1)[C@@H](C)O)[C@@H](C)O)C(C)C)C(=O)N[C@@H](C)C(=O)N[C@@H](Cc1c[nH]c2ccccc12)C(=O)N[C@@H](CC(C)C)C(=O)N[C@H](C(=O)N[C@@H](CCCCN)C(=O)NCC(=O)N[C@@H](CCCNC(=N)N)C(=O)NCC(N)=O)C(C)C | – | – | – | –
– | CC[C@H](C)[C@H](NC(=O)[C@H](Cc1ccccc1)NC(=O)[C@H](CCC(=O)O)NC(=O)[C@@H]1CCCCNC(=O)CC[C@H](NC(=O)[C@H](CCC(=O)O)NC(=O)[C@H](CC(C)C)NC(=O)[C@H](Cc2ccc(O)cc2)NC(=O)[C@H](CO)NC(=O)[C@H](CO)NC(=O)[C@@H](NC(=O)[C@H](CC(=O)O)NC(=O)[C@H](CO)NC(=O)[C@@H](NC(=O)[C@H](Cc2ccccc2)NC(=O)[C@@H](NC(=O)CNC(=O)[C@H](CCC(=O)O)NC(=O)CNC(=O)[C@@H](N)Cc2c[nH]cn2)[C@@H](C)O)[C@@H](C)O)C(C)C)C(=O)N[C@@H](CCC(N)=O)C(=O)N[C@@H](C)C(=O)N[C@@H](C)C(=O)N1)C(=O)N[C@@H](C)C(=O)N[C@@H](Cc1c[nH]c2ccccc12)C(=O)N[C@@H](CC(C)C)C(=O)N[C@H](C(=O)N[C@@H](CCCCN)C(=O)NCC(=O)N[C@@H](CCCNC(=N)N)C(=O)NCC(N)=O)C(C)C | 2.1 | 0.01 | Stable | 75
